Test: in vitro
Details: human, hela cells, % viability

Row | Structure (SMILES) | viability at 28.5 h, 10 µM
1 | COc1cc(OC)c(NC(=O)C(C)Oc2cccc(C)c2)cc1Cl (stereo not drawn) [CBK268646] | 107%
2 | COc1ccc(S(=O)(=O)Nc2ccccc2C(=O)O)cc1C(=O)O [CBK264084] | 99.9%
3 | O=C(C[n+]1ccc(CCSCc2ccc3c4c(cccc24)CC3)cc1)c1ccc2c3c(cccc13)CC2 [CBK260881B] | 96.4%
4 | O=C(O)CCC(=O)NC1CCN(Cc2ccccc2)CC1 [CBK287103] | 86.5%
5 | O=[N+]([O-])c1ccc(N2CCN(S(=O)(=O)c3ccc4ccccc4c3)CC2)cc1NC1CC1 [CBK264361] | 111%
6 | Cc1nc(-c2ccc(NC(=O)CC(C)n3cccn3)cc2)cs1 (stereo not drawn) [CBK281403] | 98.4%
7 | Cn1ccnc1C1(O)CCN(C(=O)NCc2ccccc2)CC1 [CBK282276] | 94.9%
8 | COC(=O)c1ccc(Cl)c(NC(=O)CSc2nnc(-c3ccncc3)[nH]2)c1 [CBK268702] | 105%
9 | O=C(CSc1ccc(Cl)cc1)NCCCN1CCOCC1 [CBK009390] | 99.6%
10 | CC(C)(C)OC(=O)N1CCN(Cc2ccc(N)c3ccccc23)CC1 [CBK084530] | 109%
11 | O=C(c1ccsc1NS(=O)(=O)Cc1ccccc1[N+](=O)[O-])N1CCOCC1 [CBK042294] | 89.6%
12 | CN(C)S(=O)(=O)CCNC(=O)c1ccc(-c2ccccc2CO)cc1 [CBK306773] | 95.6%
13 | Cc1nc(CN2CCN(C(=O)NCCc3cnn(C)c3)CC2)cs1 [CBK305614] | 81.3%
14 | Cc1ccc(OCc2ccccc2)c(C(CCN(C(C)C)C(C)C)c2ccccc2)c1 (stereo not drawn) [CBK017906] | 108%
15 | O=C(c1cc(F)c(F)cc1F)N1CCC2(CCCNC2)C1 (stereo not drawn) [CBK137068T] | 87%
16 | CS(=O)(=O)N1CC2(CCN(CC(N)=O)CC2)c2ccccc21 [CBK126678] | 81.5%
17 | CSCCN1CCC2(CC1)CN(CC(N)=O)c1ccccc12 [CBK126801] | 92.9%
18 | COc1ccc(S(=O)(=O)N(CCc2ccccc2)CC(=O)O)cc1C [CBK268505] | 95%
19 | CN(CCCNC(=O)c1ncoc1-c1cccs1)c1ccccc1 [CBK282248] | 103%
20 | CN1CCN(c2ccccc2NC(=S)NC(=O)c2ccc(N3CCCCC3)c([N+](=O)[O-])c2)CC1 [CBK268520C] | 121%
21 | O=S(=O)(Nc1ccc(C(O)(C(F)(F)F)C(F)(F)F)cc1)c1ccc(Cl)c(Cl)c1 [CBK062102] | 111%

Row | Structure (SMILES) | viability at 28.5 h, 10 µM
22 | CN1CCN(c2cc(N)nc(N)n2)CC1 [CBK266102] | 107%
23 | COc1ccc(C(=O)C2=C(O)C(=O)N(CCCN(C)C)C2c2ccc(Cl)c(Cl)c2)c(C)c1 (stereo not drawn) [CBK264896] | 98.8%
24 | CCc1nc2c(OCCCN(C)S(C)(=O)=O)cccn2c1N(C)C(=O)c1ccco1 [CBK147435] | 95%
25 | COc1cccc2ncn(Cc3n[nH]c(C)n3)c(=O)c12 [CBK306938] | 89.7%
26 | Cc1ccccc1Cn1nc(C)c(NC(=O)c2nc3n(n2)C(C(F)F)CC(C)N3)c1C (stereo not drawn) [CBK267633] | 92.6%
27 | O=C(Nc1sccc1C(=O)N1CCOCC1)C(Sc1ccccc1)c1ccccc1 (stereo not drawn) [CBK268165] | 95%
28 | CO[C@@H](C(=O)Nc1cnc(-c2cccc(C)c2)c(-c2ccco2)n1)c1ccccc1 [CBK037613] | 105%
29 | CC(=O)NCCSc1nc2ccccc2nc1N1CCCC1 [CBK103696] | 99%
30 | CCCN1CC(NS(=O)(=O)c2ccnn2CCC)CC1=O (stereo not drawn) [CBK306598] | 92.9%
31 | O=C(CSc1nnc(-c2ccncc2)s1)NNC(=O)c1cccs1 [CBK269600] | 82.3%
32 | COc1cccc(CN2CCC3(CC2)NC(=O)Cc2ccc(C)cc23)c1 [CBK040219] | 88.5%
33 | O=C(O)C(CCCCN1C(=O)c2ccccc2C1=O)N1C(=O)c2ccccc2C1=O (stereo not drawn) [CBK265250] | 91.7%
34 | C#CCNC(=O)N1CCC(c2c[nH]c3ccccc23)CC1 [CBK305034] | 87.4%
35 | Cc1ccc(CNC(=O)c2cnoc2-c2ccc(Br)cc2)cc1F [CBK154896] | 93.8%
36 | Cc1cc(C)cc(N(C(C)C(=O)Nc2ccccc2-c2ccccc2)S(C)(=O)=O)c1 (stereo not drawn) [CBK268770] | 101%
37 | Cc1cc(C)n(-c2ccc(C(=O)NCC3(C)COC3)cc2)n1 [CBK281756] | 92.1%
38 | Cc1ccc(CC(=O)N2CCCCC2c2ncc(-c3cccc(F)c3)[nH]2)cn1 (stereo not drawn) [CBK291152] | 98%
39 | CCC1(C)Cc2sc3[nH]c(=O)c(SCC(N)=O)nc3c2CO1 (stereo not drawn) [CBK020581] | 87.3%
40 | O=C(c1ccc2[nH]ccc2c1)N1CCC2(CCN(Cc3ccccc3)C2)C1 (stereo not drawn) [CBK137146] | 98.5%
41 | CC[C@H]1CN(C(=O)C2CC2)CC[C@H]1CC(=O)N(C)CC#N [CBK289132] | 85.9%
42 | Cc1cccc2cc(CN(Cc3ccco3)C(=O)C3CCCCC3)c(O)nc12 [CBK269178] | 102%

Row | Structure (SMILES) | viability at 28.5 h, 10 µM
43 | CC1CCCC(C)N1CC(O)COc1ccc(/N=C/c2ccccc2O)cc1 (stereo not drawn) [CBK261748] | 89.6%
44 | CC(=O)Nc1ccccc1NC(=O)CN(C)S(=O)(=O)c1ccc(Cl)cc1 [CBK267373] | 93.2%
45 | C[C@]12CN(C(=O)C3CC3)C[C@H]1NC(=O)c1ccccc1C2=O [CBK281660] | 102%
46 | O=S1(=O)CCC(Sc2nncc3ccccc23)C1 (stereo not drawn) [CBK021586] | 92.2%
47 | CCOC(=O)/C(=N/O)C(=O)c1c[nH]c2ccccc12 [CBK260979] | 96%
48 | CC(C)NC(=O)c1sc2ccccc2c1C1CN(Cc2ccc3ncccc3c2)CCO1 (stereo not drawn) [CBK285930] | 81.5%
49 | OCc1ccccc1-c1cncc(Nc2cccc(Cl)c2)n1 [CBK065400] | 102%
50 | CN1CCC(=NNC(=O)CCSc2ccc(Cl)cc2)CC1 [CBK020372] | 99.6%
51 | CCCC(=O)c1ccc(S(=O)(=O)N2CCCN(Cc3ccc(F)c(C#N)c3)CC2)cc1 [CBK062910] | 114%
52 | CN1CC[C@]2(c3ccc4c(c3)nnn4C)CC[C@@H](NC(=O)Nc3cc(F)cc(C(F)(F)F)c3)C[C@H]12 [CBK067800] | 99.2%
53 | O=C(CSc1ccc(Cl)cc1)Nc1cccc(-c2nc3ncccc3o2)c1 [CBK264989] | 105%
54 | O=C(O)[C@H]1CCCN1Cc1cc(Cl)ccc1OCCCn1ccnc1 [CBK307436] | 109%
55 | CN(C)c1ccc(-n2ncc(-c3ccccc3C(F)(F)F)n2)cc1 [CBK112716] | 92.4%
56 | C=CCNC(=O)C1(Cc2ccccc2-c2ccncc2)CCOCC1 [CBK284784] | 102%
57 | CCN(Cc1cnn(C)c1)S(=O)(=O)c1ccc2c(c1)CCCC(=O)N2 [CBK304782] | 100%
58 | COc1ccc(-c2ncc(OCC3CCCN3C)nc2N)c(OC)c1 (stereo not drawn) [CBK145091] | 88.9%
59 | Cc1nc2c(OCC(=O)C(C)(C)C)cccn2c1N(C)C(=O)C1CCCCC1 [CBK147145] | 92.4%
60 | COc1cnc(-c2ccsc2)c(NC(=O)CC(C)C)n1 [CBK145292] | 94%
61 | O=C(NCc1ccccc1)C1CCCN(c2ncnc3[nH]cnc23)C1 (stereo not drawn) [CBK287916] | 91.4%
62 | Cc1ccc(C(=O)COC(=O)c2cccc(C)c2O)cc1[N+](=O)[O-] [CBK264081] | 90.5%
63 | O=C(c1cccs1)n1nc(NCc2ccccc2)nc1NCc1ccccc1 [CBK269149] | 107%

From paper PMC12040169 (PLOS Biology, 2025)
